The values that follow come from PubChem BioAssay (NCI).

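Following 48 hours of exposure in 96-well plates, responses at five concentrations were used to interpolate endpoints linearly. GI50 = concentration required for 50% inhibition of growth. TGI denotes the concentration required for complete inhibition of growth.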

Some test systems named below: UO-31 renal; U251 CNS; SK-MEL-28 melanoma; SF-295 CNS; IGROV1 ovarian; CCRF-CEM leukemia; OVCAR-4 ovarian; SNB-75 CNS.
Common to all, as to assay: inhibition of tumour cell growth, NCI panel, 48 h

`COC(=O)/C=C1/CCC2[C@@H](C(=O)CC3[C@]2(C)CCC[C@@]3(C)C(=O)OC)C1C` (stereo partly specified): the TGI in the assay with UO-31 renal was found to be 37.5 µM; in the assay on U251 CNS it was 29.5 µM; with SK-MEL-28 melanoma, 26.8 µM; with SF-295 CNS it was 33.1 µM; with IGROV1 ovarian, 43.6 µM; with CCRF-CEM leukemia, 17.6 µM. In the assay on OVCAR-4 ovarian, this compound showed a TGI of 21.6 µM.
Take `Cc1cc(O)cc2oc(=O)c3c(O)cc(O)cc3c12`: the TGI was more than 100 µM with UO-31 renal; more than 100 µM in the assay on U251 CNS; more than 100 µM with SK-MEL-28 melanoma; 63.6 µM with SF-295 CNS; 74.7 µM in the assay on IGROV1 ovarian; 32.2 µM in the assay with SNB-75 CNS. Besides, the TGI with CCRF-CEM leukemia and in the assay with OVCAR-4 ovarian was more than 100 µM in each case.
Turning to `CCOC(C)C(/C=N/NC(N)=S)=NNC(N)=S` (stereo unspecified), the TGI with UO-31 renal was more than 77.2 µM; with U251 CNS, more than 100 µM; with SK-MEL-28 melanoma, more than 100 µM; with SF-295 CNS it was more than 100 µM; in the assay with SNB-75 CNS, more than 89.4 µM; in the assay on CCRF-CEM leukemia, more than 100 µM. Besides, the TGI in the assay on OVCAR-4 ovarian is more than 100 µM.
Consider `[O-]c1c2c(nn1-c1ccccc1)c1ccccc1c[n+]2Cc1ccccc1`, for which the TGI in the assay on UO-31 renal, in the assay on U251 CNS, with SK-MEL-28 melanoma, with SF-295 CNS, with IGROV1 ovarian and in the assay on SNB-75 CNS was more than 100 µM throughout. For the same compound, the TGI in the assay on CCRF-CEM leukemia and with OVCAR-4 ovarian was more than 100 µM in each case.
Turning to `Cc1ccc(NC(=O)C(=O)C2C(=O)N(c3ccccc3)N=C2N)cc1C` (stereo unspecified), the TGI with UO-31 renal, in the assay with U251 CNS, in the assay with SK-MEL-28 melanoma, in the assay on SF-295 CNS, with IGROV1 ovarian and in the assay with SNB-75 CNS was more than 100 µM in each case. Also, the TGI with CCRF-CEM leukemia and with OVCAR-4 ovarian was more than 100 µM each time.
Consider `CN(C)CCNC(=O)c1cc2ccccc2c2nc3ccccc3nc12`, for which the TGI in the assay with U251 CNS is 4.92 µM; in the assay with SK-MEL-28 melanoma, 2.96 µM; in the assay on IGROV1 ovarian, more than 20.7 µM; with SNB-75 CNS it was 4.26 µM; with OVCAR-4 ovarian it was 2.34 µM.
Turning to `CC1=NN(c2ccccc2)C(=O)C1=C1SCCS1`, the TGI in the assay on UO-31 renal was more than 100 µM; in the assay on U251 CNS, more than 90.3 µM; in the assay on SK-MEL-28 melanoma it was more than 100 µM; in the assay on SF-295 CNS, more than 100 µM; in the assay with IGROV1 ovarian it was more than 100 µM; in the assay on SNB-75 CNS, more than 100 µM. In addition, the figures for the TGI in the assay with CCRF-CEM leukemia and with OVCAR-4 ovarian were more than 65.5 µM and more than 100 µM, respectively.
Consider `CC(=O)[CH-]C(=O)c1ccccc1.CC(=O)[CH-]C(=O)c1ccccc1.CC[O-].CC[O-].[Zr+4]`, for which the GI50 in the assay with UO-31 renal, in the assay on U251 CNS, in the assay on SK-MEL-28 melanoma, in the assay with SF-295 CNS, with IGROV1 ovarian and in the assay on SNB-75 CNS was more than 100 µM in each case. The GI50 is 69.7 µM in the assay with CCRF-CEM leukemia and more than 100 µM with OVCAR-4 ovarian. Moreover, the TGI in the assay with UO-31 renal, in the assay on U251 CNS, in the assay with SK-MEL-28 melanoma, in the assay with SF-295 CNS, in the assay with IGROV1 ovarian and with SNB-75 CNS was more than 100 µM in each case. In addition, the TGI with CCRF-CEM leukemia and in the assay with OVCAR-4 ovarian was more than 100 µM in each case.
Take `O=S(=O)(O)O.[NH-]C1CCCCC1[NH-].[Pt+2]` (stereo unspecified): the GI50 in the assay on UO-31 renal was more than 100 µM; in the assay with U251 CNS, more than 100 µM; with SK-MEL-28 melanoma, more than 100 µM; in the assay with SF-295 CNS, more than 100 µM; in the assay with IGROV1 ovarian, more than 100 µM; in the assay with SNB-75 CNS it was 0.722 µM. Further, the figures for the GI50 in the assay with CCRF-CEM leukemia and in the assay on OVCAR-4 ovarian were 17.6 µM and 67.2 µM, respectively. Also, the TGI was more than 100 µM in the assay on UO-31 renal; more than 100 µM in the assay on U251 CNS; more than 100 µM in the assay with SK-MEL-28 melanoma; more than 100 µM in the assay on SF-295 CNS; more than 100 µM in the assay on IGROV1 ovarian; 61.5 µM in the assay on SNB-75 CNS. The TGI in the assay with CCRF-CEM leukemia and with OVCAR-4 ovarian was more than 100 µM throughout.
On to `COc1cc(C2=NN(C)C(c3ccc([N+](=O)[O-])o3)C2)cc(OC)c1OC` (stereo unspecified), for which the TGI in the assay with UO-31 renal, with U251 CNS, in the assay with SK-MEL-28 melanoma, in the assay with SF-295 CNS, with IGROV1 ovarian and in the assay with SNB-75 CNS was more than 100 µM in each case. In addition, the TGI in the assay on CCRF-CEM leukemia was 72 µM; with OVCAR-4 ovarian, more than 100 µM.
Turning to `CC1(C)COC(C23C4C5C2C2C3C4C52I)=N1` (stereo unspecified), the TGI in the assay on UO-31 renal, with U251 CNS, in the assay with SK-MEL-28 melanoma, in the assay with SF-295 CNS, with IGROV1 ovarian and in the assay on CCRF-CEM leukemia was more than 100 µM each time. For the same compound, the TGI in the assay on OVCAR-4 ovarian is more than 100 µM.
With `COC(=O)C1=C(O)c2cc(OC)c(OC)c(OC)c2[C@H](c2cc(OC)c(OC)c(OC)c2)C1C(=O)OC` (stereo partly specified), the TGI in the assay with UO-31 renal was more than 100 µM; in the assay with U251 CNS it was more than 100 µM; in the assay on SK-MEL-28 melanoma, more than 100 µM; in the assay with SF-295 CNS, 98.1 µM; in the assay on IGROV1 ovarian it was more than 100 µM; with SNB-75 CNS, more than 100 µM. In addition, the TGI in the assay with CCRF-CEM leukemia and with OVCAR-4 ovarian was more than 100 µM throughout.
As for `C/C(CC(=O)Nc1ccc(Cl)c(Cl)c1)=N/NC(=O)C[n+]1ccccc1`, the TGI in the assay on UO-31 renal, in the assay on U251 CNS, in the assay with SK-MEL-28 melanoma, in the assay with SF-295 CNS, in the assay on IGROV1 ovarian and in the assay on CCRF-CEM leukemia was more than 100 µM throughout. Also, the TGI with OVCAR-4 ovarian was more than 100 µM.
Take `Cc1ccc(NC(=O)CCC(CC(=O)C(C)(C)C)=NNC(=O)C(=O)NN)cc1C`: the TGI in the assay with UO-31 renal, with SK-MEL-28 melanoma, with SF-295 CNS, with IGROV1 ovarian, with SNB-75 CNS and in the assay with CCRF-CEM leukemia was more than 100 µM in each case. In the assay with OVCAR-4 ovarian, the TGI is more than 100 µM.
In the case of `CCOC(=O)C12CCCC1(O)N(NC(=O)c1ccccc1)C(C)=C2C(=O)OC` (stereo unspecified), the TGI in the assay on UO-31 renal, in the assay on U251 CNS, with SF-295 CNS, in the assay on IGROV1 ovarian, in the assay with CCRF-CEM leukemia and in the assay with OVCAR-4 ovarian was more than 100 µM each time.
